{
  "source": "ChEMBL document CHEMBL1143643",
  "about": "“Synthesis and evaluation of antiplatelet activity of trihydroxychalcone derivatives” (Bioorg Med Chem Lett, 2005)",
  "key": {"[1]": {"species": "Oryctolagus cuniculus", "assay": "In vitro inhibitory effects on collagen induced rabbit platelet aggregation upon incubation at 37 degree C for 4 minutes", "assay_type": "functional"}, "[2]": {"species": "Oryctolagus cuniculus", "assay": "In vitro inhibitory effects on arachidonic acid induced rabbit platelet aggregation upon incubation at 37 degree C for 4 minutes", "assay_type": "functional"}},
  "note": "pIC50: −log10 of the molar value.",
  "data": [
    {"smiles": "CN(C)c1ccc(/C=C/C(=O)c2c(O)cc(O)cc2O)cc1", "values": [
      {"measurement": "pIC50", "setting": "[1]", "result": "< 4.00"},
      {"measurement": "pIC50", "setting": "[2]", "result": "< 4.00"}
    ]},
    {"smiles": "COc1cc(/C=C/C(=O)c2c(O)cc(O)cc2O)ccc1OCc1ccccc1", "values": [
      {"measurement": "pIC50", "setting": "[1]", "result": 4.43},
      {"measurement": "pIC50", "setting": "[2]", "result": 4.55}
    ]}
  ]
}
